# Laboratory results published in ChEMBL document CHEMBL1201862, “PubChem BioAssay data set” (2004).
#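 Growth conditions: 96-well plates. Treatment: test compound, 48 hours, 5 concentrations. Analysis: linear interpolation between bracketing concentrations; unreached endpoints set to highest concentration. The concentration for 50% growth inhibition is given as GI50.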 Activity calls are given as the source filed them. No stated cut-off is given here; in the data, active = GI50 up to about 1.1 µM and inactive = higher.
# What was measured:
# Assay in all cases: growth of human tumour cells (NCI), 48 h
# MDA-MB-231 = system: MDA-MB-231
# Malme-3M = system: Malme-3M
# LXFL 529 = system: LXFL 529
# MDA-MB-435 = system: MDA-MB-435
# MDA-N = system: MDA-N
# NCI-H460 = system: NCI-H460
# HOP-18 = system: HOP-18
# DMS-273 = system: DMS-273
# HCT-15 = system: HCT-15
# HT-29 = system: HT-29
# OVCAR-8 = system: OVCAR-8
# SK-MEL-28 = system: SK-MEL-28
# COLO 205 = system: COLO 205
# 786-0 = system: 786-0
# RXF 631 = system: RXF 631
# SN12C = system: SN12C
# HCT-116 = system: HCT-116
# BT-549 = system: BT-549
# SF-539 = system: SF-539
# SF-268 = system: SF-268
# A498 = system: A498
# A549 = system: A549
# NCI/ADR-RES = system: NCI/ADR-RES
# MOLT-4 = system: MOLT-4
# HOP-92 = system: HOP-92
# SK-MEL-2 = system: SK-MEL-2
# NCI-H226 = system: NCI-H226
# Hs-578T = system: Hs-578T
# IGROV-1 = system: IGROV-1
# KM12 = system: KM12
# SK-OV-3 = system: SK-OV-3
# OVCAR-3 = system: OVCAR-3
# NCI-H23 = system: NCI-H23
# CCRF-CEM = system: CCRF-CEM
# SNB-78 = system: SNB-78
# KM-20L2 = system: KM-20L2
# DMS-114 = system: DMS-114
# UACC-257 = system: UACC-257
# SR = system: SR
# U-251 = system: U-251
# UO-31 = system: UO-31
# PC-3 = system: PC-3
# HOP-62 = system: HOP-62
# HCC 2998 = system: HCC 2998
# EKVX = system: EKVX
# SW-620 = system: SW-620
# SNB-19 = system: SNB-19
# HL-60 = system: HL-60
# M19-MEL = system: M19-MEL
# ACHN = system: ACHN
# LOX IMVI = system: LOX IMVI
# SNB-75 = system: SNB-75
# SF-295 = system: SF-295
# K562 = system: K562
# OVCAR-4 = system: OVCAR-4
# MCF7 = system: MCF7
# CAKI-1 = system: CAKI-1
# M14 = system: M14
# RXF 393 = system: RXF 393
# T47D = system: T47D
# DU-145 = system: DU-145
# TK-10 = system: TK-10
# DLD-1 = system: DLD-1
# NCI-H522 = system: NCI-H522
# SK-MEL-5 = system: SK-MEL-5
# OVCAR-5 = system: OVCAR-5
# UACC-62 = system: UACC-62
# RPMI-8226 = system: RPMI-8226
structure (smiles),measurement,setting,value
COc1cc(Cn2c(=S)ss/c2=N\C(=S)N(C)C)cc(OC)c1OC,GI50,MDA-MB-231,15.1 µM (inactive)
same,GI50,Malme-3M,3.21 µM (inactive)
same,GI50,LXFL 529,6.37 µM (inactive)
same,GI50,MDA-MB-435,1.26 µM (inactive)
same,GI50,MDA-N,1.1 µM (active)
same,GI50,NCI-H460,4.16 µM (inactive)
same,GI50,HOP-18,> 92 µM (inactive)
same,GI50,DMS-273,4.41 µM (inactive)
same,GI50,HCT-15,3.57 µM
same,GI50,HT-29,4.04 µM (inactive)
same,GI50,OVCAR-8,52.6 µM (inactive)
same,GI50,SK-MEL-28,10 µM (inactive)
same,GI50,COLO 205,9.33 µM (inactive)
same,GI50,786-0,7.36 µM (inactive)
same,GI50,RXF 631,4.25 µM (inactive)
same,GI50,SN12C,> 50.2 µM (inactive)
same,GI50,HCT-116,4.53 µM (inactive)
same,GI50,BT-549,> 20.7 µM (inactive)
same,GI50,SF-539,6.35 µM (inactive)
same,GI50,SF-268,8.93 µM (inactive)
same,GI50,A498,22.6 µM (inactive)
same,GI50,A549,13.2 µM (inactive)
same,GI50,NCI/ADR-RES,1.61 µM (inactive)
same,GI50,MOLT-4,8.91 µM (inactive)
same,GI50,HOP-92,17.9 µM (inactive)
same,GI50,SK-MEL-2,4.46 µM (inactive)
same,GI50,NCI-H226,24.3 µM (inactive)
same,GI50,Hs-578T,2.7 µM (inactive)
same,GI50,IGROV-1,17.2 µM (inactive)
same,GI50,KM12,2.64 µM (inactive)
same,GI50,SK-OV-3,13.4 µM (inactive)
same,GI50,OVCAR-3,1.89 µM (inactive)
same,GI50,NCI-H23,14.7 µM (inactive)
same,GI50,CCRF-CEM,4.32 µM (inactive)
same,GI50,SNB-78,> 100 µM (inactive)
same,GI50,KM-20L2,4.68 µM (inactive)
same,GI50,DMS-114,2.93 µM (inactive)
same,GI50,UACC-257,10.6 µM (inactive)
same,GI50,SR,3.42 µM (inactive)
same,GI50,U-251,4.61 µM (inactive)
same,GI50,UO-31,24.3 µM (inactive)
same,GI50,PC-3,3.35 µM (inactive)
same,GI50,HOP-62,13.3 µM (inactive)
same,GI50,HCC 2998,49.1 µM (inactive)
same,GI50,EKVX,> 81.5 µM (inactive)
same,GI50,SW-620,2.81 µM (inactive)
same,GI50,SNB-19,46.1 µM (inactive)
same,GI50,HL-60,2.05 µM (inactive)
same,GI50,M19-MEL,4.11 µM (inactive)
same,GI50,ACHN,7.06 µM (inactive)
same,GI50,LOX IMVI,4.69 µM (inactive)
same,GI50,SNB-75,3.77 µM (inactive)
same,GI50,SF-295,3.44 µM (inactive)
same,GI50,K562,2.59 µM (inactive)
same,GI50,OVCAR-4,48.4 µM (inactive)
same,GI50,MCF7,3.64 µM (inactive)
same,GI50,CAKI-1,4.57 µM (inactive)
same,GI50,M14,4.73 µM (inactive)
same,GI50,RXF 393,2.79 µM (inactive)
same,GI50,T47D,> 86.7 µM (inactive)
same,GI50,DU-145,> 28.5 µM (inactive)
same,GI50,TK-10,34.8 µM (inactive)
same,GI50,DLD-1,6.31 µM (inactive)
same,GI50,NCI-H522,2.3 µM (inactive)
same,GI50,SK-MEL-5,2.26 µM (inactive)
same,GI50,OVCAR-5,> 68.9 µM (inactive)
same,GI50,UACC-62,2.85 µM (inactive)
same,GI50,RPMI-8226,6.7 µM (inactive)
